As usually defined, the MIC is the least concentration at which growth counts as inhibited. Lower therefore signals greater potency. A word on the IC50: it is the concentration that gives 50% inhibition.

Our source for the MIC and IC50 values is ChEMBL document CHEMBL4145614, “Cyclopeptides from the Sponge Stylissa flabelliformis” (J Nat Prod, 2018).

One test concerns Aspergillus fumigatus. The experiment in a line: Antifungal activity against Aspergillus fumigatus HIC 6094 measured after 48 to 72 hrs. It is filed as functional.
Test [1] in a line: Inhibition of recombinant bacterial sortase A using Dabcyl-QALPETGEE-Edans as substrate measured after 1 hr by fluorescence assay. The arrangement: species or system Bacteria.
Another test concerns A549. The experiment in a line: cells. The following applies: Homo sapiens, A549, 72 h.
Another test relates to SK-HEP1. The experiment in a line: Cytotoxicity against human SKHEP1 cells after 72 hrs by sulforhodamine B assay. The format is functional, cell-based. The following applies: Homo sapiens, SK-HEP1, 72 h. (The SRB assay estimates cell density from bound dye.)
A further test concerns Bacillus spizizenii. The test is described as follows: Antibacterial activity against Bacillus subtilis ATCC 6633 measured after 24 hrs. The format is functional. Conditions: ATCC 6633, 24 h.
The test system of another test is K562. The test is described as follows: Cytotoxicity against human K562 cells after 72 hrs by sulforhodamine B assay. The format is functional, cell-based. Conditions: Homo sapiens, K562, 72 h.
The next test has as its system SNU-638. The test is described as follows: Cytotoxicity against human SNU638 cells after 72 hrs by sulforhodamine B assay. The following applies: Homo sapiens, SNU-638, 72 h. It is filed as functional, cell-based.
Another test deals with HCT-116. The experiment in a line: Cytotoxicity against human HCT116 cells after 72 hrs by sulforhodamine B assay. It is filed as functional, cell-based. Conditions: Homo sapiens, HCT-116, 72 h.
A further test has as its system MDA-MB-231. The test is described as follows: Cytotoxicity against human MDA-MB-231 cells after 72 hrs by sulforhodamine B assay. It is filed as functional, cell-based. Conditions: Homo sapiens, MDA-MB-231, 72 h.
Another test has as its system Trichophyton rubrum. The experiment in a line: Antifungal activity against Trichophyton rubrum IFO 9185 measured after 48 to 72 hrs. It is filed as functional.
A further test concerns Proteus vulgaris. The experiment in a line: Antibacterial activity against Proteus vulgaris ATCC 3851 measured after 24 hrs. It is filed as functional. The following applies: ATCC 3851, 24 h.
Test [2] relates to Trichophyton mentagrophytes. The experiment in a line: Antifungal activity against Trichophyton mentagrophytes IFO 40996 measured after 48 to 72 hrs. It is filed as functional.
The test system of the next test is Staphylococcus aureus. The experiment in a line: Antibacterial activity against Staphylococcus aureus ATCC 6538P measured after 24 hrs. It is filed as functional.
The target of test [3] is Sodium/potassium-transporting ATPase. The test is described as follows: Inhibition of potassium-activated sodium/potassium ATPase in human placenta using 3-O-methylfluorescein phosphate as substrate measured for 90 secs by fluorescence assay.
For another test, the system named is Micrococcus luteus. The experiment in a line: Antibacterial activity against Micrococcus luteus IFC 12708 measured after 24 hrs. The format is functional. Conditions: IFC 12708, 24 h.
Another test deals with Escherichia coli. The experiment in a line: Antibacterial activity against Escherichia coli ATCC 25922 measured after 24 hrs. It is filed as functional. Conditions: ATCC 25922, 24 h.
The subject of another test is Salmonella typhimurium. The experiment in a line: Antibacterial activity against Salmonella typhimurium ATCC 14028 measured after 24 hrs. It is filed as functional, Salmonella enterica subsp. enterica serovar Typhimurium. Conditions: Salmonella enterica, ATCC 14028, 24 h.
For another test, the system named is Candida albicans. The test is described as follows: Antifungal activity against Candida albicans ATCC 10231 measured after 48 to 72 hrs. It is filed as functional.

Molecules are shown by their SMILES. Where a SMILES comes first, the peptide text is derived from it.

Description for A549: Cytotoxicity against human A549 cells after 72 hrs by sulforhodamine B assay

Turning to `C[C@@H]1NC(=O)[C@H]([C@@H](C)O)NC(=O)[C@H](Cc2ccc(O)cc2)NC(=O)[C@@H]2CCCN2C(=O)[C@H](Cc2ccc(O)cc2)NC(=O)[C@H](CCCNC(=N)N)NC(=O)[C@@H]2CCCN2C(=O)[C@H](CC(N)=O)NC1=O` [CYCLONELLIN] (HELM PEPTIDE1{A.N.P.R.Y.P.Y.T}$PEPTIDE1,PEPTIDE1,1:R1-8:R2$$$V2.0), the MIC (in the test with Aspergillus fumigatus; against Bacillus spizizenii; in the test with Trichophyton rubrum; against Proteus vulgaris; in test [2]; in the test on Staphylococcus aureus) was greater than 128 µM throughout. Also, the MIC against Micrococcus luteus, against Escherichia coli, against Salmonella typhimurium and against Candida albicans was greater than 128 µM each time. In addition, the half-inhibitory concentration (IC50) was greater than 100 µM in test [1]; greater than 50 µM in the test on A549; greater than 50 µM with SK-HEP1; greater than 50 µM in the test with K562; greater than 50 µM with SNU-638; greater than 50 µM in the test on HCT-116. The IC50 with MDA-MB-231 was greater than 50 µM; in test [3], greater than 100 µM.
Consider `CC[C@H](C)[C@@H]1NC(=O)[C@H](Cc2ccccc2)NC(=O)[C@@H]2CCCN2C(=O)[C@H](Cc2ccc(O)cc2)NC(=O)[C@H](CCC(=O)O)NC(=O)[C@@H]2CCCN2C(=O)[C@@H]2CCCN2C1=O` (HELM PEPTIDE1{E.Y.P.F.I.P.P}$PEPTIDE1,PEPTIDE1,1:R1-7:R2$$$V2.0), for which the minimal inhibitory concentration (MIC) (in the test on Aspergillus fumigatus; with Bacillus spizizenii; in the test with Trichophyton rubrum; in the test on Proteus vulgaris; in test [2]; with Staphylococcus aureus) was greater than 128 µM in each case. In addition, the MIC against Micrococcus luteus, with Escherichia coli, against Salmonella typhimurium and against Candida albicans was greater than 128 µM in each case. Further, the half-maximal inhibitory concentration (IC50) is greater than 100 µM in [1]; 19 µM in the test on A549; 11 µM in the test with SK-HEP1; 3.9 µM with K562; 11 µM in the test on SNU-638; 6.2 µM in the test with HCT-116. Besides, the figures for the IC50 (in the test on MDA-MB-231; in test [3]) were 17 µM and greater than 100 µM, respectively.
As for `CC[C@H](C)[C@@H]1NC(=O)[C@H](Cc2ccccc2)NC(=O)[C@@H]2CCCN2C(=O)[C@H](Cc2ccccc2)NC(=O)[C@@H]2CCCN2C(=O)[C@H](CCC(N)=O)NC(=O)[C@@H]2CCCN2C(=O)[C@H](Cc2ccccc2)NC1=O` [PHAKELLI STATIN 11] (HELM PEPTIDE1{F.I.F.P.Q.P.F.P}$PEPTIDE1,PEPTIDE1,1:R1-8:R2$$$V2.0), the MIC (against Aspergillus fumigatus; with Bacillus spizizenii; against Trichophyton rubrum; with Proteus vulgaris; in test [2]; against Staphylococcus aureus) was greater than 128 µM each time. Moreover, the MIC against Micrococcus luteus, against Escherichia coli, in the test on Salmonella typhimurium and in the test on Candida albicans was greater than 128 µM each time. Moreover, the IC50 is greater than 100 µM in test [1]; 2.8 µM in the test on A549; 1.7 µM in the test on SK-HEP1; 5.6 µM in the test with K562; 6.9 µM in the test with SNU-638; 1.6 µM in the test on HCT-116. Also, the IC50 in the test with MDA-MB-231 is 3.2 µM; in test [3], greater than 100 µM.
With `CC[C@H](C)[C@@H]1NC(=O)[C@H](C)NC(=O)[C@H](CC(C)C)NC(=O)[C@@H]2CCCN2C(=O)[C@H](CC(=O)O)NC(=O)[C@H](Cc2ccc(O)cc2)NC(=O)[C@@H]2CCCN2C1=O` (HELM PEPTIDE1{A.I.P.Y.D.P.L}$PEPTIDE1,PEPTIDE1,1:R1-7:R2$$$V2.0), the MIC (against Aspergillus fumigatus; in the test on Bacillus spizizenii; with Trichophyton rubrum; with Proteus vulgaris; in [2]; against Staphylococcus aureus) was greater than 128 µM each time. For the same molecule, the minimal inhibitory concentration (MIC) with Micrococcus luteus, with Escherichia coli, against Salmonella typhimurium and against Candida albicans was greater than 128 µM each time. Besides, the IC50 in test [1] is greater than 100 µM; with A549 it was greater than 50 µM; in the test with SK-HEP1 it was greater than 50 µM; in the test on K562 it was greater than 50 µM; in the test on SNU-638, greater than 50 µM; in the test on HCT-116 it was greater than 50 µM. Moreover, the figures for the IC50 (in the test with MDA-MB-231; in test [3]) were greater than 50 µM and greater than 100 µM, respectively.
In the case of `CC[C@H](C)[C@@H]1NC(=O)[C@@H]2CCCN2C(=O)[C@H](Cc2ccc(O)cc2)NC(=O)[C@@H]2CCCN2C(=O)[C@H]([C@@H](C)CC)NC(=O)[C@@H]2CCCN2C(=O)[C@H](Cc2ccccc2)NC1=O` (HELM PEPTIDE1{F.P.I.P.Y.P.I}$PEPTIDE1,PEPTIDE1,1:R1-7:R2$$$V2.0), the MIC (against Aspergillus fumigatus; against Bacillus spizizenii; in the test on Trichophyton rubrum; against Proteus vulgaris; in test [2]; in the test with Staphylococcus aureus) was greater than 128 µM in each case. Besides, the MIC in the test with Micrococcus luteus, with Escherichia coli, in the test on Salmonella typhimurium and in the test with Candida albicans was greater than 128 µM each time. Besides, the IC50 in [1] is greater than 100 µM; in the test on A549, 6.7 µM; in the test with SK-HEP1, 7.7 µM; in the test on K562, 33 µM; in the test on SNU-638, 37 µM; with HCT-116, 3.9 µM. Further, the IC50 in the test with MDA-MB-231 was 9.1 µM; in test [3] it was greater than 100 µM.
For `CC[C@H](C)[C@@H]1NC(=O)[C@@H]2CCCN2C(=O)[C@@H]2CCCN2C(=O)[C@H]([C@@H](C)CC)NC(=O)[C@H](Cc2ccc(O)cc2)NC(=O)[C@@H]2CCCN2C(=O)[C@@H]2CCCN2C(=O)[C@H](CC(C)C)NC(=O)[C@H](C(C)C)NC(=O)[C@H](Cc2ccccc2)NC1=O` (HELM PEPTIDE1{F.V.L.P.P.Y.I.P.P.I}$PEPTIDE1,PEPTIDE1,1:R1-10:R2$$$V2.0), the minimum inhibitory concentration (MIC) (in the test on Aspergillus fumigatus; in the test on Bacillus spizizenii; in the test on Trichophyton rubrum; with Proteus vulgaris; in [2]; in the test on Staphylococcus aureus) was greater than 128 µM throughout. Moreover, the MIC against Micrococcus luteus, in the test on Escherichia coli, against Salmonella typhimurium and against Candida albicans was greater than 128 µM in each case. The IC50 in test [1] was greater than 100 µM; in the test with A549, 0.54 µM; in the test with SK-HEP1, 2.3 µM; with K562, 0.29 µM; in the test with SNU-638 it was 1.7 µM; with HCT-116 it was 0.1 µM. The IC50 in the test on MDA-MB-231 was 2.5 µM; in test [3] it was greater than 100 µM.
As to `CC[C@H](C)[C@@H]1NC(=O)[C@@H]2CCCN2C(=O)[C@H](Cc2ccccc2)NC(=O)[C@@H]2CCCN2C(=O)[C@H](Cc2ccc(O)cc2)NC(=O)[C@@H]2CCCN2C(=O)[C@H]([C@@H](C)CC)NC1=O` [PHAKELLISTATIN 2] (HELM PEPTIDE1{F.P.I.I.P.Y.P}$PEPTIDE1,PEPTIDE1,1:R1-7:R2$$$V2.0), the MIC (in the test with Aspergillus fumigatus; in the test on Bacillus spizizenii; in the test on Trichophyton rubrum; with Proteus vulgaris; in test [2]; in the test on Staphylococcus aureus) was greater than 128 µM each time. The minimum inhibitory concentration (MIC) in the test on Micrococcus luteus, with Escherichia coli, in the test with Salmonella typhimurium and against Candida albicans was greater than 128 µM each time. For the same molecule, the IC50 in [1] was greater than 100 µM; in the test with A549, 0.66 µM; in the test on SK-HEP1 it was 0.77 µM; in the test with K562, 3.2 µM; in the test on SNU-638, 1.6 µM; in the test on HCT-116 it was 0.71 µM. The IC50 with MDA-MB-231 was 1.3 µM; in [3] it was greater than 100 µM.
As for `COc1cc([C@@H]2c3cc4c(cc3[C@@H](O[C@@H]3O[C@@H]5CO[C@@H](C)O[C@H]5[C@H](O)[C@H]3O)[C@H]3COC(=O)[C@H]23)OCO4)cc(OC)c1O` [ETOPOSIDE], the IC50 with A549 came to 0.72 µM; in the test on SK-HEP1 it was 0.93 µM; in the test with K562 it was 1.3 µM; in the test with SNU-638 it was 0.43 µM; with HCT-116 it was 0.68 µM; with MDA-MB-231, 4.4 µM.
As to `CC[C@H](C)[C@@H]1NC(=O)[C@H](Cc2ccccc2)NC(=O)[C@@H]2CCCN2C(=O)[C@@H]([C@H](C)O)NC(=O)[C@@H]2CCCN2C(=O)[C@H](CO)NC(=O)[C@H](C)NC1=O`, the MIC (against Aspergillus fumigatus; in the test on Bacillus spizizenii; with Trichophyton rubrum; against Proteus vulgaris; in [2]; against Staphylococcus aureus) was greater than 128 µM throughout. The MIC against Micrococcus luteus, with Escherichia coli, in the test with Salmonella typhimurium and in the test with Candida albicans was greater than 128 µM each time. The IC50 in test [1] was greater than 100 µM; in the test with A549, 7.4 µM; in the test with SK-HEP1, 7.2 µM; in the test on K562 it was 30 µM; in the test with SNU-638, 24 µM; with HCT-116 it was 4.5 µM. Further, the results for the IC50 (in the test with MDA-MB-231; in [3]) were 10 µM and greater than 100 µM, respectively.
